We go through two compounds from US20170022260A9 (Sanofi, priority 2013, published 2017).

In brackets after ≈: the same amount, converted by molar mass.

One data set is described as follows: physchem. The format is physicochemical. The method, then:
Prior to the testing of solubility and stability of a peptide batch, its content was determined Therefore, two parameters were investigated, its purity (HPLC-UV) and the amount of salt load of the batch (ion chromatography).
. Therefore, solutions from solid samples were prepared in different buffer systems with a concentration of 1.0 mg/mL compound based on the previously determined content. HPLC-UV was performed after 2 h of gentle agitation from the supernatant, which was obtained by 20 min of centrifugation at 4000 rpm.
This analysis also served as starting point (t0) for the stability testing.
As HPLC/UPLC method, method D or E has been used.

Data set [1] concerns Female diabetic dbdb-mice. The data set is described as follows: Glucose lowering in female diabetic dbdb-mice. The note with it: 100 μg/kg s.c. The format is in vivo. The method, then:
Female diabetic dbdb-mice (BKS.Cg-+Leprdb/+Leprdb/OlaHsd) 10 weeks of age at study start were used. Mice were habituated to feeding and housing conditions for at least 2 weeks. 7 days prior to study start, HbA1c were determined to allocate mice to groups, aiming to spread low, medium and high HbA1c-values and in consequence the group-means (n=8), as equally as possible. On the day of study, food was removed, directly before sampling for baseline glucose assessment (t=0 min) Immediately afterwards, compounds or vehicle (phosphor buffered saline, PBS) were administered subcutaneously, 100 μg/kg, 10 ml/kg. Afterwards, blood samples were drawn by tail tip incision at 15, 30, 60, 90, 120, 150, 180, 240, 360, 480 min and 24 h. Food was re-offered after the 480 min-sampling.
Data were analysed by 2-W-ANOVA on repeated measurements, followed by Dunnett's test as post-hoc assessment, level of significance p<0.05.

Usually solubility stands for the dissolved amount per volume that the medium holds. Higher therefore signals a readily soluble substance. Turning to `CC[C@H](C)[C@H](NC(=O)[C@H](CC(C)C)NC(=O)[C@H](Cc1c[nH]c2ccccc12)NC(=O)[C@H](CCC(=O)O)NC(=O)[C@@H](NC(=O)[C@H](Cc1ccccc1)NC(=O)[C@H](CCC(=O)O)NC(=O)[C@H](CCCCN)NC(=O)[C@H](C)NC(=O)[C@H](CCCNC(=N)N)NC(=O)[C@H](CCC(N)=O)NC(=O)[C@H](CCC(=O)O)NC(=O)[C@H](CC(=O)O)NC(=O)[C@H](CC(C)C)NC(=O)[C@H](CCC(N)=O)NC(=O)[C@H](CCCCN)NC(=O)[C@H](CO)NC(=O)[C@H](CC(C)C)NC(=O)[C@H](CC(=O)O)NC(=O)[C@H](CO)NC(=O)[C@@H](NC(=O)[C@H](Cc1ccccc1)NC(=O)[C@@H](NC(=O)CNC(=O)[C@H](CCC(N)=O)NC(=O)[C@H](CO)NC(=O)[C@@H](N)Cc1c[nH]cn1)[C@@H](C)O)[C@@H](C)O)[C@@H](C)CC)C(=O)N[C@@H](C)C(=O)NCC(=O)NCC(=O)N1CCC[C@H]1C(=O)N[C@H](C(=O)N[C@@H](CO)C(=O)NCC(=O)N[C@@H](C)C(=O)N1CCC[C@H]1C(=O)N1CCC[C@H]1C(=O)N1CCC[C@H]1C(=O)N[C@@H](CO)C(N)=O)C(C)C` [SEQ ID NO: 6, HSQGTFTSDLSKQLDEQRAKEFIEWLIAGGPVSGAPPPS-NH2], the solubility at 2 h in “physchem” (pH 4.5, solubility pH 4.5) was 934 µg/mL (≈ 223 µM); in “physchem” (pH 7.4, solubility pH 7.4), over 1000 µg/mL.

For “H-Aib-HGTFTSDLSKQLDEQRAKDFIEWLIAGGPSSGAPPPS-NH2 [SEQ ID NO: 10]”, the “reduction of glucose compared to vehicle control, statistical significance” value in data set [1] (female db/db-mice, p<0.05, 2-way-ANOVA, Dunnett's post-hoc test) is “statistical significant reduction of glucose compared to vehicle control from t=60 min until 240 min”. Further, in data set [1] (non-fasted female db/db-mice, change from baseline (baseline on average 28 mmol/l)), the “maximal effect, glucose reduction” value was about 12 mmol/1.
